Data: US20090215727A1, “INHIBITION OF ATP-MEDIATED, P2X7 DEPENDENT PATHWAYS BY PYRIDOXAL-5-PHOSPHATE AND VITAMIN B6 RELATED COMPOUNDS” (MEDICURE INTERNATIONAL INC., priority 2005, published 2009)
Entries after “also recorded” stand apart in the source; their conditions may differ.

What was measured:
[1] = tested on: IL-1β processing and release from PMA/LPS stimulated THP-1 cells; experiment: ATP-induced processing and release of IL-1β from PMA/LPS stimulated THP-1 cells (human IL-1β ELISA); assay type: cell-based; conditions: 5 mM ATP for one hour; for effect on ATP-induced processing and release of IL-1β: test compound 0.5-150 μM, 30 min pretreatment, IL-1β in media by ELISA
Method: THP-1 non-adherent, monocytic cells (ATCC) were pre-treated with phorbol-12-myristate-13-acetate (PMA), which differentiated the cells into macrophage-like cells. Briefly, approximately 8×10^6 THP-1 cells were harvested, pelleted, resuspended in media to which PMA was added at a final concentration of 0.5 μM. The cells were incubated for 3 hours, then collected, washed, and plated.
The next day, the cells were treated with lipopolysaccharide (LPS) to stimulate IL-1β production. Briefly, the media was removed and replaced with RPI media+10% fetal calf serum containing 100 ng/ml of LPS. Cells were incubated for an additional 24 hours.
Cells were pretreated for 30 minutes, then the media was replaced with media containing 5 mM ATP as well as the test compound. Cells were exposed to ATP for one hour. Media was then collected and the amount of IL-1β in the media was determined using a human IL-1β ELISA (R&D Systems).
Results were expressed as the mean±sem. Statistical analysis was performed using […] (Medistats). […] IL-1β levels were measured in the cell culture media by ELISA and the results are expressed as a percent of the untreated (baseline) controls.

HEK 293 cells = experiment: MTT cell viability assay in parent HEK 293 cells; assay type: cell-based
Method: (§1) Parent (HEK 293) cells, and HEK 293 cells expressing rat P2X7 (HEK 293 P2X7 (rat) cells) were treated with ATP (Sigma, A9062) to determine the effects of ATP on the viability of the cells. Cell viability was determined using an MTT assay (Wen, 2003). Cells were treated with between 0 and 2 μM of ATP. MTT was added to the cell cultures 180 minutes after ATP treatment. The MTT assay was performed 60 minutes after the addition of MTT. Cell viability was directly correlatable to the absorbance of 550 nm light by the cell culture, with a higher absorbance meaning higher cell viability. The cell culture media was removed and the cells were solubilized using DMSO. The absorbance of the solubilized cells was read.
(§2) HEK 293 and HEK 293 P2X7 (rat) cells were treated with 0 to 50 μM of P5P, a vitamin B6 related compound, in sodium salt form (Chemistry Department, CanAm Bioresearch Inc.). Thirty minutes later, cells were treated with 0.4 μM ATP, to determine the effects of ATP on the viability of the MC-1 treated cells. Control cells received sham treatment of P5P, and sham treatment of ATP.
Cell viability was determined using an MTT assay. MTT was added to the cell cultures 180 minutes after ATP treatment. […] Cell viability was directly correlatable to the absorbance of 550 nm light by the cell culture, with a higher absorbance meaning higher cell viability.

rat P2X7 receptor = biological target: T1, rat P2X7 receptor (Rattus norvegicus, UniProt Q64663); experiment: MTT cell viability assay in HEK 293 cells stably expressing rat P2X7 (ATP-mediated, P2X7-dependent cell death); assay type: cell-based; conditions: HEK 293 P2X7 (rat) cells
T1 construct: expressed in transfected cells; host or cells: HEK 293
T1 sequence (Q64663 1-595): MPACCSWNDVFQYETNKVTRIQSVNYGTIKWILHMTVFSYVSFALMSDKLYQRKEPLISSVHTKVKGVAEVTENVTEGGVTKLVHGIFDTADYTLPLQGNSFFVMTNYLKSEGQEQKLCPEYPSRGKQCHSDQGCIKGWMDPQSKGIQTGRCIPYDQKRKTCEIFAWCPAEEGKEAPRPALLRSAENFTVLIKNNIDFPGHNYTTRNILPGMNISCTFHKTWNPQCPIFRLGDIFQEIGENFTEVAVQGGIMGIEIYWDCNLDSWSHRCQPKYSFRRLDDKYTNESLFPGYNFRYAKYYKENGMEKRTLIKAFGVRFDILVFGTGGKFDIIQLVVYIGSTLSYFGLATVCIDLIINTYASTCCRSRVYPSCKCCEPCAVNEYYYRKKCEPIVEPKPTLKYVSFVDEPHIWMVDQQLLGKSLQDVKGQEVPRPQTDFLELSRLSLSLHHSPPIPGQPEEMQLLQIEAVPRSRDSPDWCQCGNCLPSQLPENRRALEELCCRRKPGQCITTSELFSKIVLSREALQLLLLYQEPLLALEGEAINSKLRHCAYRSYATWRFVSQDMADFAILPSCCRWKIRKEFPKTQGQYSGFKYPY
Method: HEK 293 cells were stably transfected to express rat P2X7 receptor, using standard tissue culture techniques (Surprenant et al, 1996). The cell line was known to not express any of the other P2X receptors (Schachter et al, 1997). Stable expression of P2X7 was confirmed by Western blot (results not shown).
as §1, §2
Cell viability was determined using an MTT assay. MTT was added to the cell cultures 180 minutes after ATP treatment. The MTT assay was performed 60 minutes after the addition of MTT. Cell viability was directly correlatable to the absorbance of 550 nm light by the cell culture, with a higher absorbance meaning higher cell viability.

IL-1β = experiment: Cytokine response of lipopolysaccharide treated rats (plasma IL-1β); assay type: in vivo, Sprague-Dawley rats; conditions: blood at 240 min, example in present tense
Method: Sprague-Dawley rats weighing approximately 300 g are treated with 1, 3, or 10 mg/kg P5P (or a saline control). Thirty minutes later (t=30), the animals are given a 50 μg/kg intraperitoneal injection of LPS (or a saline control). Temperature of the animals is measured, and a blood sample is collected at 240 minutes post-treatment (t=240).
Blood samples are transferred to heparinized tubes and plasma is separated by centrifugation. Plasma is assayed for IL-1β, [IL-6 and TNF-α].

P2X7 receptors = biological target: T2, P2X7 receptors (Rattus norvegicus, UniProt Q64663); experiment: BzATP-mediated, P2X7-dependent cell death (Examples 1-2 repeated with BzATP); assay type: cell-based; conditions: BzATP substituted for ATP; example in present tense
T2 construct: expressed in transfected cells; host or cells: HEK 293
T2 sequence (Q64663 1-595): T1 sequence (Q64663 1-595)
From the text: Examples 1-2 are repeated, substituting BzATP for ATP. BzATP is known to be a specific agonist of P2X7 receptors. This Example yields results consistent with Examples 1-4, further establishing that the pathway utilized is a P2X7 dependent pathway.

Cc1ncc(CO)c(CN)c1O [pyridoxamine]
effect on ATP-induced processing and release of IL-1β [1]: not effective; also recorded: no significant effect

Nc1ncnc2c1ncn2[C@@H]1O[C@H](COP(=O)(O)OP(=O)(O)OP(=O)(O)O)[C@@H](O)[C@H]1O [ATP, adenosine triphosphate]
cell viability (MTT, absorbance at 550 nm) (HEK 293 cells; parent HEK 293 cells, up to 2 μM ATP, MTT added 180 min after ATP): did not significantly affect
ATP concentration from which significant loss in cell viability starts (MTT) (rat P2X7 receptor; 0 to 2 μM ATP tested): ≥ 0.4 µM
processing and release of IL-1β into the culture media ([1]; PMA/LPS primed THP-1 cells, versus untreated baseline): significant increase

lipopolysaccharide [LPS]
processing and release of IL-1β [IL-6 and TNF-α] into the plasma (IL-1β; rats, 50 μg/kg intraperitoneal LPS): significant increase

Cc1ncc(COP(=O)(O)O)c(C=O)c1O [P5P, pyridoxal-5′-phosphate]
cell viability (MTT) after P5P pretreatment and ATP (HEK 293 cells; HEK 293 cells, 0 to 50 μM P5P 30 min before 0.4 μM ATP): did not have any significant effect
cell viability (MTT) of ATP treated cells after P5P pretreatment (rat P2X7 receptor; 50 μM P5P half an hour before 0.4 μM ATP): significantly improved
viability of P5P pretreated, ATP treated cells compared with control cells (rat P2X7 receptor; 50 μM P5P, 0.4 μM ATP, control = sham P5P and sham ATP): no significant difference
cell viability (MTT) of ATP treated cells after P5P pretreatment (rat P2X7 receptor; 1.5 to 15 μM P5P 30 min before 0.4 μM ATP): did not significantly affect
effect on ATP-induced processing and release of IL-1β [1]: uniquely effective; also recorded: significantly inhibited
protection from BzATP-mediated, P2X7-dependent cell death (P2X7 receptors): Protects Cells
processing and release of IL-1β in vivo (plasma) (IL-1β; rats, 1, 3 or 10 mg/kg P5P 30 min before 50 μg/kg i.p. LPS): significantly inhibits

Cc1ncc(CO)c(C=O)c1O [pyridoxal]
effect on ATP-induced processing and release of IL-1β [1]: not effective; also recorded: no significant effect

Cc1ncc(CO)c(CO)c1O [pyridoxine]
effect on ATP-induced processing and release of IL-1β [1]: not effective; also recorded: no significant effect

pyridoxamine phosphate
effect on ATP-induced processing and release of IL-1β [1]: not effective; also recorded: no significant effect
